Source: patent US10844091B2 (priority 2017, dated 2020)
Marks after values point to notes of the source that are not given here. Non-standard residues stand in square brackets, D forms with d.

Experiments:
[1] = tested on: rat models with Alzheimer's disease; assay: Extrapolation escape (EE) test, scopolamine-induced Alzheimer's disease model; type: in vivo
Description: (§1) White random-bred adult male rats weighing 200-240 g were used. Groups of 7 animals per group were formed. 1st group—control, 2nd—pathology, 3rd—comparator drug, 4th-6th—neuropeptides.
(§2) Scopolamine was administered i.p. to the animals in all groups except for the control at a 1 mg/kg dose daily, once a day for 27 days. From the 28th day on, the animals in groups 2 and 3 were administered the comparator drug and the claimed preparation respectively over the course of 10 days. The drugs were administered daily, once a day.
(§3) The tetrapeptides were administered i.n at a 0.1 mg/kg dose. The animals in the pathology group received 0.9% sodium chloride solution i.n. and i.p. as a placebo.
(§4) The OF and EE tests were conducted on the 1st day, PST—on the 2nd day, CPAR—on the 1st and 10th day post treatment with the preparations. […] The antiamnesic action (AA) in the CPAR test was calculated using Butler's formula [K. S. Radionova. […] After that, the animals were removed from the experiment by administering a narcotic, followed by decapitation. The brain was extracted and weighed, and the brain weight coefficient (BWC) was calculated. Immediately after extraction, the brain was frozen in liquid nitrogen and used in subsequent biochemical and histochemical studies. Glucose levels in whole arterial (common carotid artery) and venous (venous cerebral sinus) blood were determined by the glucose oxidase test, the difference in the arterial-venous glucose content was calculated (glucose consumption marker). The levels of average weight molecules—the toxic products of cell biodegradation damaged during the disease (nucleoside derivatives, peptoids, glucuronic acid salts, etc.) in the blood serum (AWM) were calculated [A. N. Kovalevsky. Notes on the screening method of determination average weight molecules/A. N. Kovalevsky, O. Ye. Nifantiev//Lab. Science. […] 35-39].

[2] = tested on: rat models with Alzheimer's disease; assay: Conditioned passive avoidance reflex (CPAR) test, scopolamine-induced Alzheimer's disease model; type: in vivo; conditions: for antiamnesic action (AA) in the CPAR test: Butler's formula, 0.1 mg/kg; for number of animals who reached the CPAR learning criterium: % of total trained animals, criterium at least 180 sec in light area
Description: as §1, §2, §3, §4

rat models with AD = assay: Porsolt swim test (PST), scopolamine-induced Alzheimer's disease model; type: in vivo; conditions: AD rats; donepezil 1 mg/kg i.p., tetrapeptide (LYS) 0.1 mg/kg i.n.
Description: as §1, §2, §3, §4

acetylcholinesterase = acetylcholinesterase (Rattus norvegicus, UniProt P37136); conditions: donepezil 1 mg/kg, tetrapeptide 0.1 mg/kg
Chain of acetylcholinesterase (P37136 32-614): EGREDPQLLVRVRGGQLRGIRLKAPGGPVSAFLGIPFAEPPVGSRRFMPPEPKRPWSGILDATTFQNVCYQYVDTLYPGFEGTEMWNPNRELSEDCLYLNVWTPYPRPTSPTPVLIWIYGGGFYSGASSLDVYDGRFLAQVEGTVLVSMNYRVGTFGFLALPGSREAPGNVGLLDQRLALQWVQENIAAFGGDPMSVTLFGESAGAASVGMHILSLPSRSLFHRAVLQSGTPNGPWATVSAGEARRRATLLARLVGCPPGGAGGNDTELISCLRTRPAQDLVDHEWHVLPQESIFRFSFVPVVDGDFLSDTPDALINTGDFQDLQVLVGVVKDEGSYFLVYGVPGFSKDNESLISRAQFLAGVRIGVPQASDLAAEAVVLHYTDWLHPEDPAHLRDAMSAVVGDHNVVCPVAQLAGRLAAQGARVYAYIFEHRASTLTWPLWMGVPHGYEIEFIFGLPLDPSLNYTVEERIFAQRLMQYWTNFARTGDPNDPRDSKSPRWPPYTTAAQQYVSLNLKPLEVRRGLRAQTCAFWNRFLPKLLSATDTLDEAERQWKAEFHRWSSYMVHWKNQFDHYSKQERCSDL
Description: as §2, §3
(§5) A procedure for the isolation of noradrenaline (together with adrenaline), dopamine, 5-hydroxy tryptamine and histamine from the same tissue sample using a single column of strongly acidic cation exchange resin 1C. […] Determination of ATP content in tissue//Methods for biochemical research/Edited by prof. M. I. Prokhorova, Leningrad, pub.

butyrylcholinesterase = conditions: tetrapeptide 0.1 mg/kg
Description: as §2, §3, §5

[3] = tested on: intact animals and animals with reserpine-induced depression; assay: Open Field Test, intact animals and animals with reserpine-induced depression; type: in vivo, rat; conditions: for Emotional reactions and concomitant vegetative state (total number of grooming acts, fecal boluses, and urinations) / Orientation and exploratory activity (number of explored openings and upright positions) / Sum of all results / Locomotor activity (number of squares): imipramine 15 mg/kg i.p., tetrapeptide (LYS) 0.02 mg/kg i.n.
Description: (§6) The experiment was conducted on 16 white random-bred adult male rats weighing:
(§7) 180-220 g. The antidepressant activity of tetrapeptide (LYS), a neuroprotector, at a 0.02 mg/kg dose intranasally (i.n.) was evaluated. […] The experiment was conducted in two stages. […] 25-30 min. prior to the start of the experiment, the animals were administered their respective drugs. The animals in the control group were administered 0.9% NaCl solution i.p. and i.n. in the volume equal to the volume of the medications. After that, the animals of all groups were placed in the open field (OF) for 3 min., and their locomotor (number of crossed squares), orientation, and exploratory (number of upright positions and explored openings) activity as well as their emotional reactions (fecal boluses, urination, grooming) were evaluated. The indicators of depression in the animals (latent immobilization period, the number of such instances, and their total duration) were evaluated in the Popsolt swim test (PST) over 6 min. In the next 2 days, all the medications were administered at the same dose once a day; the last administration—30 min before the depressogenic sympatholytics of reserpine. Reserpine was administered on the 3rd day (2nd stage of the experiment) at a 4 mg/kg dose i.p. (as a suspension stabilized with Tween-80). Animals in all 3 groups were evaluated 6-7 hr. later in the OF and PST.
(§8) Test results were statistically processed. When the data distribution was normal, the parametric Student's t-distribution test was applied, when it was absent, the non-parametric MannWhitney U-test was used. When processing the results in an alternative form (presence/absence of the indicator), Fisher's angular transformation φ was applied. Wilcoxon paired t-criterium test was used for the intra-group statistical evaluation of the changed in the animal test results prior and post simulated depression. The results were considered to be statistically significant when p<0.05.

[4] = tested on: intact rats and animals with reserpine-induced depression; assay: Popsolt swim test, intact rats and animals with reserpine-induced depression; type: in vivo, rat; conditions: for Number of immobilization episodes / Total duration of immobilization / Latent immobilization period: imipramine 15 mg/kg i.p., tetrapeptide (LYS) 0.02 mg/kg i.n.
Description: as §6, §7, §8

[5] = 3 min test, scopolamine 1 mg/kg i.p. 27 days, donepezil 1 mg/kg i.p. 10 days, peptide (LYS) 0.1 mg/kg i.n. 10 days
[6] = R - reserpine-induced depression
[7] = reserpine-induced depression, p<0.05

acetyl-D-Lys-Lys-Arg-Arg-amide (Ac-[dK]KRR-NH2; SMILES CC(=O)N[C@H](CCCCN)C(=O)N[C@@H](CCCCN)C(=O)N[C@@H](CCCNC(=N)N)C(=O)N[C@@H](CCCNC(=N)N)C(N)=O) [tetrapeptide (LYS), peptide acetyl-X-ARG-ARG-amide, X = D- and L-amino acid residues of lysine]
reduction of escape time compared to the pathology group ([1]; 0.1 mg/kg i.n. 10 days, p<0.05): 3.8 times
escape time difference versus donepezil ([1]; 0.1 mg/kg i.n. vs donepezil 1 mg/kg, p<0.05): 41.7%
% of animals succeeded [1, 5]: 100%
Escape time [1, 5]: 11.00 ± 3.07*^ sec.
antiamnesic action (AA) in the CPAR test ([2]; 10th day): 81.5%
increase of latent period compared to the pathology group ([2]; 24 hrs. post formation of CPAR): 79.5%
Latent period of entry into the dark area of the CPAR device, In 24 hrs. ([2]; In 24 hrs., scopolamine + donepezil 1 mg/kg or tetrapeptide (LYS) 0.1 mg/kg i.n.): 126.14 ± 23.62 s
Latent period of entry into the dark area of the CPAR device, In 10 days ([2]; In 10 days, scopolamine + donepezil 1 mg/kg or tetrapeptide (LYS) 0.1 mg/kg i.n.): 89.71 ± 19.09^ sec.
Latent period of entry into the dark area of the CPAR device, Initial ([2]; Initial, scopolamine + donepezil 1 mg/kg or tetrapeptide (LYS) 0.1 mg/kg i.n.): 20.14 ± 3.73 s
number of animals who reached the CPAR learning criterium ([2]; first day): 42.9%
antiamnesic action (AA) in the CPAR test ([2]; first day): 56.5%
increase of latent period compared to the pathology group ([2]; post 10 days, p<0.05): 130.9%
number of animals who reached the CPAR learning criterium ([2]; tenth day): 14.3%
Latent period of immobilization (rat models with AD): 68.12 ± 6.15 s
Number of immobilization acts (rat models with AD): 6.21 ± 0.82
Total duration of immobilization (rat models with AD): 111.06 ± 13.25 s
AChE activity in synapsosomes and in the whole brain homogenate (acetylcholinesterase): reduces
butyrylcholinesterase activity in the brain (butyrylcholinesterase): significantly increases
Emotional reactions and concomitant vegetative state (total number of grooming acts, fecal boluses, and urinations) ([3]; I - intact animals): 1.8 ± 0.77^
Orientation and exploratory activity (number of explored openings and upright positions) ([3]; I - intact animals): 5.8 ± 0.77
Sum of all results ([3]; I - intact animals): 11.6 ± 2.49*^
Locomotor activity (number of squares) ([3]; I - intact animals, 3 min): 4.0 ± 1.34*^
Locomotor activity (number of squares) ([3]; R - reserpine-induced depression (4 mg/kg i.p.)): 3.4 ± 2.4
Emotional reactions and concomitant vegetative state (total number of grooming acts, fecal boluses, and urinations) [3, 6]: 0.2 ± 0.2
Orientation and exploratory activity (number of explored openings and upright positions) [3, 6]: 4.6 ± 2.4
Sum of all results [3, 6]: 8.2 ± 4.98
Emotional reactions and concomitant vegetative state, % change reserpine-induced depression vs. intact animals ([3]; R vs I): (−88.9%) ®
Locomotor activity, % change reserpine-induced depression vs. intact animals ([3]; R vs I): (−15.0%)
Orientation and exploratory activity, % change reserpine-induced depression vs. intact animals ([3]; R vs I): (−20.69%)
Sum of all results, % change reserpine-induced depression vs. intact animals ([3]; R vs I): (−29.3%)
decrease of emotional reaction level compared to intact animals ([3]; reserpine-induced depression): 9 times
reduction of locomotor activity (crossed squares) compared to intact animals ([3]; reserpine-induced depression): 15%
reduction of orientation and exploratory activity compared to intact animals ([3]; reserpine-induced depression): 20.7%
reduction of the sum of all types of activities compared to intact animals ([3]; reserpine-induced depression): 29.3%
Number of immobilization episodes ([4]; I - intact animals): 1.2 ± 0.6
Total duration of immobilization ([4]; I - intact animals): 4.0 ± 2.7 s
Latent immobilization period ([4]; I - intact animals, 6 min): 214.6 ± 66.7 s
Latent immobilization period [4, 6]: 170.8 ± 34.1 s
Number of immobilization episodes [4, 6]: 3.0 ± 0.38
Total duration of immobilization [4, 6]: 7.8 ± 2.3 s
Latent immobilization period, % change reserpine-induced depression vs. intact animals ([4]; R vs I): (−20.4)^ %
Number of immobilization episodes, % change reserpine-induced depression vs. intact animals ([4]; R vs I): (+150.0%)
Total duration of immobilization, % change reserpine-induced depression vs. intact animals ([4]; R vs I): (+95.0%)
increase of the latent immobilization period compared to the control ([4]; intact animals, p<0.05): 3.5 times
reduction of the number of immobilization periods compared to the control ([4]; intact animals, p<0.05): 11.5 times
reduction of total duration of immobilization compared to the control ([4]; intact animals, p<0.05): 16.1 times
increase of the latent immobilization period compared to the control [4, 7]: 4.5 times
reduction of the number of immobilization episodes compared to the control [4, 7]: 2.6 times
reduction of total duration of immobilization compared to the control [4, 7]: 3.6 times
